# In patent publication US20100029669A1, “3-(SUBSTITUTED ETHYL)-RIFAMYCIN DERIVATIVES USEFUL AS ANTIMICROBIAL AGENTS” (priority 2008, published 2010):
# Tests used:
# [1] = test system: Enterococcus faecium OC 3312 vancomycin resistant; experiment: MIC, microdilution broth method (NCCLS), strain A; conditions: read-out: MIC A Strain
# Protocol: (§1) The in vitro antimicrobial activity of representative compounds of the present invention was determined by the microdilution broth method following the test method from the National Committee for Clinical Laboratory Standards (NCCLS).
# (§2) In this method two-fold serial dilutions of drug in cation adjusted Mueller-Hinton broth were added to wells in microdilution trays. The test organisms were prepared by adjusting the turbidity of actively growing broth cultures so that the final concentration of test organism after it is added to the wells was approximately 5×10^4 CFU/well. Following inoculation of the microdilution trays, the trays were incubated at 35° C. for 16-20 hours and then read. The amount of growth in the wells containing the test compound was compared with the amount of growth in the growth-control wells (no test compound) used in each tray.
# [2] = test system: Methicillin-resistant Staphylococcus aureus OC 2878; experiment: MIC, microdilution broth method (NCCLS), strain D; conditions: read-out: MIC D Strain
# Protocol: as §1, §2
# [3] = test system: Methicillin-resistant Staphylococcus aureus OC 3726 COL; experiment: MIC, microdilution broth method (NCCLS), strain B; conditions: read-out: MIC B Strain
# Protocol: as §1, §2
# [4] = test system: Staphylococcus aureus OC4172; experiment: MIC, microdilution broth method (NCCLS), strain C; format: cell-based; conditions: cation adjusted Mueller-Hinton broth, 35° C., 16-20 hours
SMILES,MIC [1] [µg/mL],MIC [2] [µg/mL],MIC [3] [µg/mL],MIC [4] [µg/mL]
CO[C@H]1/C=C/O[C@@]2(C)Oc3c(C)c(O)c4c(O)c(c(CCNCc5ccc(-c6cccnn6)cc5)c(O)c4c3C2=O)NC(=O)/C(C)=C\C=C\[C@H](C)[C@H](O)[C@@H](C)[C@@H](O)[C@@H](C)[C@H](OC(C)=O)[C@@H]1C [Compound 15],1,0.25,0.5,0.25
CO[C@H]1/C=C/O[C@@]2(C)Oc3c(C)c(O)c4c(O)c(c(C(CN)CN)c(O)c4c3C2=O)NC(=O)/C(C)=C\C=C\[C@H](C)[C@H](O)[C@@H](C)[C@@H](O)[C@@H](C)[C@H](OC(C)=O)[C@@H]1C [Compound 8],1,1,0.5,0.25
CO[C@H]1/C=C/O[C@@]2(C)Oc3c(C)c(O)c4c(O)c(c(CC[N+](=O)[O-])c(O)c4c3C2=O)NC(=O)/C(C)=C\C=C\[C@H](C)[C@H](O)[C@@H](C)[C@@H](O)[C@@H](C)[C@H](OC(C)=O)[C@@H]1C [Compound 2],1,≤ 0.03,≤ 0.03,≤ 0.03
CO[C@H]1/C=C/O[C@@]2(C)Oc3c(C)c(O)c4c(c3C2=O)C(=O)C(C(C[N+](=O)[O-])C[N+](=O)[O-])=C(NC(=O)/C(C)=C\C=C\[C@H](C)[C@H](O)[C@@H](C)[C@@H](O)[C@@H](C)[C@H](OC(C)=O)[C@@H]1C)C4=O [Compound 4],2,0.5,1,0.5
CO[C@H]1/C=C/O[C@@]2(C)Oc3c(C)c(O)c4c(O)c(c(CCNCc5ccc(-n6cccn6)cc5)c(O)c4c3C2=O)NC(=O)/C(C)=C\C=C\[C@H](C)[C@H](O)[C@@H](C)[C@@H](O)[C@@H](C)[C@H](OC(C)=O)[C@@H]1C [Compound 13],0.5,0.12,0.12,0.12
CO[C@H]1/C=C/O[C@@]2(C)Oc3c(C)c(O)c4c(O)c(c(CCNCc5ccc(-c6ncccn6)cc5)c(O)c4c3C2=O)NC(=O)/C(C)=C\C=C\[C@H](C)[C@H](O)[C@@H](C)[C@@H](O)[C@@H](C)[C@H](OC(C)=O)[C@@H]1C [Compound 14],1,0.5,1,0.5
CO[C@H]1/C=C/O[C@@]2(C)Oc3c(C)c(O)c4c(O)c(c(CCN(C)C)c(O)c4c3C2=O)NC(=O)/C(C)=C\C=C\[C@H](C)[C@H](O)[C@@H](C)[C@@H](O)[C@@H](C)[C@H](OC(C)=O)[C@@H]1C [Compound 10],0.25,0.06,≤ 0.03,≤ 0.03
CO[C@H]1/C=C/O[C@@]2(C)Oc3c(C)c(O)c4c(c3C2=O)C(=O)C(CC[N+](=O)[O-])=C(NC(=O)/C(C)=C\C=C\[C@H](C)[C@H](O)[C@@H](C)[C@@H](O)[C@@H](C)[C@H](OC(C)=O)[C@@H]1C)C4=O [Compound 1],0.12,≤ 0.03,≤ 0.03,≤ 0.03
CO[C@H]1/C=C/O[C@@]2(C)Oc3c(C)c(O)c4c(O)c(c(C(C[N+](=O)[O-])C[N+](=O)[O-])c(O)c4c3C2=O)NC(=O)/C(C)=C\C=C\[C@H](C)[C@H](O)[C@@H](C)[C@@H](O)[C@@H](C)[C@H](OC(C)=O)[C@@H]1C [Compound 3],4,0.25,0.5,0.25
CO[C@H]1/C=C/O[C@@]2(C)Oc3c(C)c(O)c4c(O)c(c(CCNCc5ccc(N6CCN(C)CC6)cc5)c(O)c4c3C2=O)NC(=O)/C(C)=C\C=C\[C@H](C)[C@H](O)[C@@H](C)[C@@H](O)[C@@H](C)[C@H](OC(C)=O)[C@@H]1C [Compound 12],0.5,≤ 0.03,≤ 0.03,≤ 0.03
CO[C@H]1/C=C/O[C@@]2(C)Oc3c(C)c(O)c4c(O)c(c(CCNCc5ccccc5)c(O)c4c3C2=O)NC(=O)/C(C)=C\C=C\[C@H](C)[C@H](O)[C@@H](C)[C@@H](O)[C@@H](C)[C@H](OC(C)=O)[C@@H]1C [Compound 9],0.12,≤ 0.03,≤ 0.03,≤ 0.03
"CO[C@H]1/C=C/O[C@@]2(C)Oc3c(C)c(O)c4c(O)c(c([C@H](O)C[N+](=O)[O-])c(O)c4c3C2=O)NC(=O)/C(C)=C\C=C\[C@H](C)[C@H](O)[C@@H](C)[C@@H](O)[C@@H](C)[C@H](OC(C)=O)[C@@H]1C (single isomer, unassigned) [Compound 5]",8,8,8,8
CO[C@H]1/C=C/O[C@@]2(C)Oc3c(C)c(O)c4c(O)c(c(CCN5CCCCC5)c(O)c4c3C2=O)NC(=O)/C(C)=C\C=C\[C@H](C)[C@H](O)[C@@H](C)[C@@H](O)[C@@H](C)[C@H](OC(C)=O)[C@@H]1C [Compound 11],0.25,0.06,0.06,≤ 0.03
